From PMC3853684 (Scientific Reports, 2013)

Assays:
[1] = cited from earlier work
[2] = cited from earlier work; remark: listed apart in the source
[3] = Plasma OXT concentration after intranasal OXT; format: in vivo; details: male, human, inhaled or intranasal, 24 IU
[4] = intravenous injection, animal-based work; cited from earlier work
[5] = monkeys, starting level, cervical puncture; cited from earlier work
[6] = intranasal 16 or 24 IU; cited from earlier work
[7] = humans, cited from earlier work

Tmax [3] | level at 1.5 h ([3]; SD) | Compound | increase of half-life in CSF (compared to plasma) [1] | time of increases in OXT plasma concentrations ([2]; intranasal 24 IU) | time of peak elevated OXT plasma concentrations ([2]; intranasal OXT 30 IU, three male volunteers) | fraction of the peptide that crossed the blood-brain barrier (BBB) [4] | OXT CSF concentration before increase [5] | duration of increase in OXT saliva concentrations [6] | time to increase in CSF concentrations ([7]; intranasal 40 IU) | increase in CSF concentrations (fold) ([7]; intranasal 80 IU) | time to significant increase in CSF concentrations ([7]; intranasal 80 IU)
15 min | 0.0123 ± 0.006 ng/mL | CC[C@H](C)[C@@H]1NC(=O)[C@H](Cc2ccc(O)cc2)NC(=O)[C@@H](N)CSSC[C@@H](C(=O)N2CCC[C@H]2C(=O)N[C@@H](CC(C)C)C(=O)NCC(N)=O)NC(=O)[C@H](CC(N)=O)NC(=O)[C@H](CCC(N)=O)NC1=O [OXT, oxytocin] | 30–40 fold | 30 to 40 min | 10 to 40 min | approximately 0.01% | around 20 pg/ml | up to 7 h |  |  | 
 |  | arginine vasopressin [arginine vasopressin (AVP)] |  |  |  |  |  |  | up to 60 min | up to 4 fold | 10 min
